For assay [1], the system named is primary human fibroblasts derived from IPF patients (LL29 cells) treated with TGF-β1. Nature of the assay: Inhibition of the fibrotic process: αSMA staining in TGF-β1-treated LL29 fibroblasts. Conditions: Fibroblast; for EC50: 96 h, LL29 fibroblasts treated with TGF-β1 (20 ng/mL), 4 days, Table 4; for inhibition at 10 µM: LL29 fibroblasts treated with TGF-β1, Table 4, read-out: percent inhibition at 10 μM (given in parentheses for EC50 >10 μM). The assay is classed as cell-based. An outline of the steps:
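IPF-derived LL29 fibroblasts in F12 with 1% FBS dosed with compound (11-point, 10 μM to 1.87 nM, 0.1% DMSO), then 20 ng/mL TGF-β1 after 1 h, and cultured 4 days at 37 °C. αSMA-positive cell fraction imaged after excluding SYTOX-positive cells, normalized to TGF-β1/DMSO wells; EC50 by non-linear regression, % inhibition at 10 μM if EC50 >10 μM.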

In assay [2] the test system is primary human mesenchymal stem cells (hMSCs). The assay can be described thus: Induction of chondrogenesis in human mesenchymal stem cells (nodule staining with Rhodamine B / Nile Red). The assay is classed as cell-based. The following applies: for Emax: TGF-β3 (10 ng/mL) as positive control, read-out: Max. Activity as % TGF-β3 activity; for EC50: concentration required to induce 50% levels of chondrogenesis vs TGF-β3, read-out: Conc (nM) of 50% TGF-β3 activity. An outline of the steps: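 Primary hMSCs (passage 3–6) in incomplete chondrogenic induction medium were exposed 6 days at 37° C to compound (1:3 dilutions, 2700–10 nM in 96-well or 5000–2.2 nM in 384-well; 0.03% DMSO). Nodules stained with Rhodamine B/Nile Red were imaged; area normalized to DMSO wells for EC50, maximal activity and dose at maximum.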

One may read the inhibition as the percentage by which the read-out fell short of the control.

Regarding `O=C(Nc1cncc(-c2ccc3[nH]nc(-c4nc5ccccc5[nH]4)c3n2)c1)C1CCCCC1` [Compound 275, N-(5-(3-(1H-Benzo[d]imidazol-2-yl)-1H-pyrazolo[4,3-b]pyridin-5-yl)pyridin-3-yl) cyclohexanecarboxamide], in assay [1], the EC50 was 80.8 nM.

Regarding `O=C(Nc1cncc(-c2ccc3[nH]nc(-c4nc5c(N6CCCCC6)cccc5[nH]4)c3n2)c1)C1CC1` [Compound 188, N-(5-(3-(4-(Piperidin-1-yl)-1H-benzo[d]imidazol-2-yl)-1H-pyrazolo[4,3-b]pyridin-5-yl)pyridin-3-yl)cyclopropanecarboxamide], in assay [1], the inhibition at 10 µM was 49.2% and the EC50 is over 10000 nM.

In assay [1], `CN1CCN(c2cccc3[nH]c(-c4n[nH]c5ccc(-c6cncc(NC(=O)C7CCCC7)c6)nc45)nc23)CC1` [Compound 246, N-(5-(3-(4-(4-Methylpiperazin-1-yl)-1H-benzo[d]imidazol-2-yl)-1H-pyrazolo [4,3-b]pyridin-5-yl)pyridin-3-yl)cyclopentanecarboxamide] displayed an EC50 of 4940 nM.

Regarding `Fc1cccc(-c2cccc3[nH]c(-c4n[nH]c5ccc(C6CCNCC6)nc45)nc23)c1` [Compound 505, 3-(4-(3-Fluorophenyl)-1H-benzo[d]imidazol-2-yl)-5-(piperidin-4-yl)-1H-pyrazolo[4,3-b]pyridine], in assay [2], the Emax was determined as 46%. This molecule came in with an EC50 in assay [1] of 1700 nM.

As to `CN(C)CCNc1cc(F)cc(-c2cccc3[nH]c(-c4n[nH]c5ccc(-c6cncc(CNCC7CCCC7)c6)nc45)nc23)c1` [Compound 473, N^1-(3-(2-(5-(5-(((Cyclopentylmethyl)amino)methyl)pyridin-3-yl)-1H-pyrazolo[4,3-b]pyridin-3-yl)-1H-benzo[d]imidazol-4-yl)-5-fluorophenyl)-N^2,N^2-dimethylethane-1,2-diamine], the EC50 in assay [1] was 1450 nM.

With `Cc1cn(-c2cccc3[nH]c(-c4n[nH]c5ccc(-c6cncc(NC(=O)C(C)(C)C)c6)nc45)nc23)cn1` [Compound 204, N-(5-(3-(4-(4-Methyl-1H-imidazol-1-yl)-1H-benzo[d]imidazol-2-yl)-1H-pyrazolo[4,3-b]pyridin-5-yl)pyridin-3-yl)pivalamide], the Emax in assay [2] was determined as 78%. In addition, the EC50 in assay [2] came to 10 nM; in assay [1], 997 nM.

As for `CCNCc1cncc(-c2ccc3[nH]nc(-c4nc5c(-c6cc(F)cc(NCCN(C)C)c6)cccc5[nH]4)c3n2)c1` [Compound 454, N^1-(3-(2-(5-(5-((Ethylamino)methyl)pyridin-3-yl)-1H-pyrazolo[4,3-b]pyridin-3-yl)-1H-benzo[d]imidazol-4-yl)-5-fluorophenyl)-N^2,N^2-dimethylethane-1,2-diamine], in assay [2], the Emax amounted to 104% and the EC50 worked out at 62 nM. For the same molecule, the EC50 in assay [1] was determined as 2400 nM.

The molecule `FC1(F)CCN(Cc2cncc(-c3ccc4[nH]nc(-c5nc6c(N7CCCCC7)cccc6[nH]5)c4n3)c2)C1` [Compound 194, 5-(5-((3,3-Difluoropyrrolidin-1-yl)methyl)pyridin-3-yl)-3-(4-(piperidin-1-yl)-1H-benzo[d]imidazol-2-yl)-1H-pyrazolo[4,3-b]pyridine] had an EC50 in assay [1] of 6660 nM.

Take `CC(C)(C)CC(=O)Nc1cncc(-c2ccc3[nH]nc(-c4nc5ccccc5[nH]4)c3n2)c1` [Compound 268, N-(5-(3-(1H-Benzo[d]imidazol-2-yl)-1H-pyrazolo[4,3-b]pyridin-5-yl)pyridin-3-yl)-3,3-dimethylbutanamide]: the EC50 in assay [1] came out at 2380 nM.

The molecule `CN(C)CCNc1cc(F)cc(-c2cccc3[nH]c(-c4n[nH]c5ccc(-c6ccccn6)nc45)nc23)c1` [Compound 476, N^1-(3-Fluoro-5-(2-(5-(pyridin-2-yl)-1H-pyrazolo[4,3-b]pyridin-3-yl)-1H-benzo[d]imidazol-4-yl)phenyl)-N^2,N^2-dimethylethane-1,2diamine] showed an EC50 in assay [1] of 1080 nM.

Consider `CN1CCN(c2cccc3[nH]c(-c4n[nH]c5ccc(-c6cncc(OCc7ccccc7)c6)nc45)nc23)CC1` [Compound 646, 5-(5-(Benzyloxy)pyridin-3-yl)-3-(4-(4-methylpiperazin-1-yl)-1H-benzo[d]imidazol-2-yl)-1H-pyrazolo[4,3-b]pyridine], for which the EC50 in assay [1] is 1460 nM.

In assay [1], `c1ccc(-c2ccc3[nH]nc(-c4nc5ccccc5[nH]4)c3n2)nc1` [Compound 280, 3-(1H-Benzo[d]imidazol-2-yl)-5-(pyridin-2-yl)-1H-pyrazolo[4,3-b]pyridine] yielded an EC50 of 4740 nM.

Take `COc1cncc(-c2ccc3[nH]nc(-c4nc5c(N6CCCCC6)cccc5[nH]4)c3n2)c1` [Compound 612, 5-(5-Methoxypyridin-3-yl)-3-(4-(piperidin-1-yl)-1H-benzo[d]imidazol-2-yl)-1H-pyrazolo[4,3-b]pyridine]: in assay [1], the inhibition at 10 µM came out at 26.9% and the EC50 was over 10000 nM.

The molecule `Fc1cccc(-c2cccc3[nH]c(-c4n[nH]c5ccc(-c6cncc(OCCN7CCCC7)c6)nc45)nc23)c1` [Compound 514, 3-(4-(3-Fluorophenyl)-1H-benzo[d]imidazol-2-yl)-5-(5-(2-(pyrrolidin-1-yl)ethoxy)pyridin-3-yl)-1H-pyrazolo[4,3-b]pyridine] came in with an EC50 in assay [1] of 1060 nM.

Consider `c1cncc(-c2cccc3[nH]c(-c4n[nH]c5ccc(-c6cncc(OC7CCCCC7)c6)nc45)nc23)c1` [Compound 559, 5-(5-(Cyclohexyloxy)pyridin-3-yl)-3-(4-(pyridin-3-yl)-1H-benzo[d]imidazol-2-yl)-1H-pyrazolo[4,3-b]pyridine], for which, in assay [1], the EC50 worked out at 2620 nM.

`O=C(Nc1cncc(-c2ccc3[nH]nc(-c4nc5c(-c6cccc(F)c6)cccc5[nH]4)c3n2)c1)C1CC1` [Compound 20, N-(5-(3-(4-(3-Fluorophenyl)-1H-benzo[d]imidazol-2-yl)-1H-pyrazolo[4,3-b]pyridin-5-yl)pyridin-3-yl)cyclopropanecarboxamide]: the EC50 in assay [1] was 1200 nM.

As for `CN1CCN(c2cccc3[nH]c(-c4n[nH]c5ccc(-c6cncc(OC7CCCCC7)c6)nc45)nc23)CC1` [Compound 639, 5-(5-(Cyclohexyloxy)pyridin-3-yl)-3-(4-(4-methylpiperazin-1-yl)-1H-benzo [d]imidazol-2-yl)-1H-pyrazolo[4,3-b]pyridine], the EC50 in assay [1] stood at 1360 nM.

`O=C(Nc1cncc(-c2ccc3[nH]nc(-c4nc5c(-c6cccs6)cccc5[nH]4)c3n2)c1)C1CC1` [Compound 356, N-(5-(3-(4-(Thiophen-2-yl)-1H-benzo[d]imidazol-2-yl)-1H-pyrazolo[4,3-b]pyridin-5-yl)pyridin-3-yl)cyclopropanecarboxamide]: in assay [1], the inhibition at 10 µM was determined as 0% and the EC50 is over 10000 nM.

`CCCC(=O)Nc1cncc(-c2ccc3[nH]nc(-c4nc5c(-c6ccsc6)cccc5[nH]4)c3n2)c1` [Compound 297, N-(5-(3-(4-(Thiophen-3-yl)-1H-benzo[d]imidazol-2-yl)-1H-pyrazolo[4,3-b]pyridin-5-yl)pyridin-3-yl)butyramide] returned an EC50 in assay [1] of 1300 nM.

For the molecule `c1cc(N2CCCCC2)c2nc(-c3n[nH]c4ccc(-c5cncc(OCCN6CCCC6)c5)nc34)[nH]c2c1` [Compound 610, 3-(4-(Piperidin-1-yl)-1H-benzo[d]imidazol-2-yl)-5-(5-(2-(pyrrolidin-1-yl)ethoxy)pyridin-3-yl)-1H-pyrazolo[4,3-b]pyridine], the EC50 in assay [1] came to 1970 nM.

In turn, `CS(=O)(=O)NCc1cc(F)cc(-c2cccc3[nH]c(-c4n[nH]c5ccc(-c6cncnc6)nc45)nc23)c1` [Compound 503, N-(3-Fluoro-5-(2-(5-(pyrimidin-5-yl)-1H-pyrazolo[4,3-b]pyridin-3-yl)-1H-benzo[d]imidazol-4-yl)benzyl)methanesulfonamide] came in with an EC50 in assay [1] of 5000 nM.

In the case of `c1ccc(CNCc2cncc(-c3ccc4[nH]nc(-c5nc6c(-c7ccsc7)cccc6[nH]5)c4n3)c2)cc1` [Compound 304, N-Benzyl-1-(5-(3-(4-(thiophen-3-yl)-1H-benzo[d]imidazol-2-yl)-1H-pyrazolo[4,3-b]pyridin-5-yl)pyridin-3-yl)methanamine], the EC50 in assay [1] was found to be 2200 nM.

Regarding `Oc1cncc(-c2ccc3[nH]nc(-c4nc5c(-c6cccnc6)cccc5[nH]4)c3n2)c1` [Compound 565, 5-(3-(4-(Pyridin-3-yl)-1H-benzo[d]imidazol-2-yl)-1H-pyrazolo[4,3-b]pyridin-5-yl)pyridin-3-ol], the EC50 in assay [1] came out at 1730 nM.

As for `c1csc(-c2cccc3[nH]c(-c4n[nH]c5ccc(-c6ccncc6)nc45)nc23)c1` [Compound 354, 5-(Pyridin-4-yl)-3-(4-(thiophen-2-yl)-1H-benzo[d]imidazol-2-yl)-1H-pyrazolo[4,3-b]pyridine], in assay [1], the inhibition at 10 µM came out at 31.2% and the EC50 is over 10000 nM.

In assay [1], `Oc1cncc(-c2ccc3[nH]nc(-c4nc5c(N6CCCCC6)cccc5[nH]4)c3n2)c1` [Compound 613, 5-(3-(4-(Piperidin-1-yl)-1H-benzo[d]imidazol-2-yl)-1H-pyrazolo[4,3-b]pyridin-5-yl)pyridin-3-ol] displayed an EC50 of 3320 nM.

With `CS(=O)(=O)NCc1cc(F)cc(-c2cccc3[nH]c(-c4n[nH]c5ccc(-c6cncc(CNCc7ccccc7)c6)nc45)nc23)c1` [Compound 500, N-(3-(2-(5-(5-((Benzylamino)methyl)pyridin-3-yl)-1H-pyrazolo[4,3-b]pyridin-3-yl)-1H-benzo[d]imidazol-4-yl)-5-fluorobenzyl)methanesulfonamide], in assay [1], the EC50 turned out to be 2210 nM.

The values are drawn from US10392383B2, “3-(1H-benzo[d]imidazol-2-yl)-1H-pyrazolo[4,3-b]pyridines and therapeutic uses thereof” (Samumed, LLC, priority 2015, dated 2019).
